≈ marks a conversion by molar mass, not a printed value. Numbered stars: 1 amine (or outer) side, 2 acyl side, 3 side chain; on linkers, the order of the positions; unused ones are H or OH. Square brackets hold non-standard residues; d marks the D form. Peptide text beside a SMILES is read from it. * marks the point of attachment. ξ: configuration not given here. X1 = N=C1NCC(C(O)C(N[*:1])C(=O)[*:2])N1C1OC(CO)C(O)C(O)C1O; ξEnduracididine(βξ-OH,4'ξ) = N=C1NCC(C(O)C(N)C(=O)O)N1; X2 = OCC1OC(OC2C(CO)OC(*)C(O)C2O)C(O)C(O)C1O; ξPhe(βξ-Me) = CC(c1ccccc1)C(N)C(=O)O

We go through five compounds from patent publication US7183253B2, “Substantially pure glycopeptide antibiotics AC-98-1, AC-98-2, AC-98-3, AC-98-4 and AC-98-5” (Wyeth Holdings Corp., priority 2001, dated 2007).

The test system of experiment [1] is Micrococcus luteus (ATCC 9341). The experiment is described as follows: In vitro antibacterial activity, agar dilution MIC. To be noted: ATCC9341, Mueller-Hinton agar, 5% sheep blood, 18 hours. The experiment is classed as cell-based. As for the experimental part: (§1) The in vitro antibacterial activity of substantially pure glycopeptide antibiotics AC-98-1, AC-98-2, AC-98-3, AC-98-4, and AC-98-5 from Examples 2 and 3 is determined against a spectrum of bacteria by a standard agar dilution method. Mueller-Hinton agar containing 5% sheep blood and two-fold decreasing concentrations of substantially pure glycopeptide antibiotics AC-98-1, AC-98-2, AC-98-3, AC-98-4, and AC-98-5 from Examples 2 and 3 are poured into petri dishes. The agar surfaces are inoculated with 1 to 5×10^4 colony forming units of bacteria by means of a Steers replicating device. The lowest concentration of antibiotic that inhibited the growth of a bacterial strain after 18 hours incubation is recorded as the minimal inhibitory concentration for that strain.

Experiment [2] deals with Streptococcus pneumoniae (ID-4444). The experiment is described as follows: In vitro antibacterial activity, agar dilution MIC. The class given is cell-based. To be noted: Mueller-Hinton agar, 5% sheep blood, 18 hours. As for the experimental part:
as §1

Experiment [3] deals with Staphylococcus aureus Smith. The experiment is described as follows: In vivo antibacterial activity in infected mice. To be noted: female CD-1 mice infected intraperitoneally with Staphylococcus aureus Smith; treated intravenously 30 minutes before infection; read-out: ED50 (iv, mg/kg) Staphylococcus aureus. As for the experimental part: The in vivo antibacterial activity of substantially pure glycopeptides AC-98-1, AC-98-2, AC-98-3, AC-98-4, and AC-98-5 is established by infecting female CD-1 mice from Charles River Laboratories, weighing 20+/−2 g each, intraperitoneally with 6.5×10^5 CFU/0.5 ml of broth of Staphylococcus aureus Smith. The mice are treated intravenously, 30 minutes before infection with the indicated dose of the test compound in 0.2 ml of water.

Experiment [4] concerns Escherichia coli (ATCC 25922). The experiment is described as follows: In vitro antibacterial activity, agar dilution MIC. To be noted: ATCC25922, Mueller-Hinton agar, 5% sheep blood, 18 hours. The class given is cell-based. Here is the method: as §1
In the next experiment the test system is Escherichia coli (J2175). The experiment is described as follows: In vitro antibacterial activity, agar dilution MIC. The class given is cell-based. To be noted: Mueller-Hinton agar, 5% sheep blood, 18 hours. As for the experimental part: as §1
The test system of experiment [5] is Staphylococcus aureus (ID-4379). The experiment is described as follows: In vitro antibacterial activity, agar dilution MIC. The experiment is classed as cell-based. To be noted: Mueller-Hinton agar, 5% sheep blood, 18 hours. As for the experimental part: as §1
The subject of experiment [6] is Enterococcus faecium (ID-3301). The experiment is described as follows: In vitro antibacterial activity, agar dilution MIC. The experiment is classed as cell-based. To be noted: Mueller-Hinton agar, 5% sheep blood, 18 hours. Here is the method:
as §1

The subject of experiment [7] is Enterococcus faecium (ID-3953). The experiment is described as follows: In vitro antibacterial activity, agar dilution MIC. To be noted: Mueller-Hinton agar, 5% sheep blood, 18 hours. The class given is cell-based. As for the experimental part:
as §1

Experiment [8] relates to Streptococcus pneumoniae (GC1889). The experiment is described as follows: In vitro antibacterial activity, agar dilution MIC. To be noted: Mueller-Hinton agar, 5% sheep blood, 18 hours. The experiment is classed as cell-based. Here is the method: as §1

As to `CC(c1ccccc1)C1NC(=O)CNC(=O)C(CO)NC(=O)C(C(O)C2CNC(=N)N2C2OC(CO)C(O)C(O)C2O)NC(=O)C(C(O)C2CNC(=N)N2)NC(=O)C(Cc2ccc(OC3OC(CO)C(OC4OC(CO)C(O)C(O)C4O)C(O)C3O)cc2)NC1=O` (stereo not drawn) [AC-98-1] (cyclo(G[ξPhe(βξ-Me)]Y(X2)[ξEnduracididine(βξ-OH,4'ξ)][X1]S); configuration not given here), the minimum inhibitory concentration (MIC) in [1] is 64 mg/mL (≈ 49.4 mM); in experiment [2], greater than 32 mg/mL. Further, the ED50 in [3] was found to be 20 mg/kg.
Regarding `CC(c1ccccc1)C1NC(=O)CNC(=O)C(CO)NC(=O)C(C(O)C2CNC(=N)N2C2OC(CO)C(O)C(O)C2O)NC(=O)C(C(O)C2CNC(=N)N2)NC(=O)C(Cc2ccc(O)cc2)NC1=O` (stereo not drawn) [AC-98-2] (cyclo(G[ξPhe(βξ-Me)]Y[ξEnduracididine(βξ-OH,4'ξ)][X1]S); configuration not given here), the MIC in experiment [4] was 64 mg/mL (≈ 65.9 mM); against Escherichia coli (J2175), 64 mg/mL (≈ 65.9 mM); in [1] it was 16 mg/mL (≈ 16.5 mM); in [5], 64 mg/mL (≈ 65.9 mM); in [2] it was greater than 64 mg/mL. In [3], the ED50 is greater than 32 mg/kg.
In the case of `CC(C)CC(=O)OC1C(OC2C(CO)OC(Oc3ccc(CC4NC(=O)C(C(C)c5ccccc5)NC(=O)CNC(=O)C(CO)NC(=O)C(C(O)C5CNC(=N)N5C5OC(CO)C(O)C(O)C5O)NC(=O)C(C(O)C5CNC(=N)N5)NC4=O)cc3)C(O)C2O)OC(CO)C(O)C1O` (stereo not drawn) [AC-98-3], the minimum inhibitory concentration (MIC) came out at 64 mg/mL (≈ 46.4 mM) in experiment [6]; 64 mg/mL (≈ 46.4 mM) in experiment [7]; 2 mg/mL (≈ 1.45 mM) in experiment [1]; 8 mg/mL (≈ 5.8 mM) in experiment [5]; 4 mg/mL (≈ 2.9 mM) in experiment [8]; 8 mg/mL (≈ 5.8 mM) in [2]. Moreover, in experiment [3], the ED50 worked out at 3.8 mg/kg.
Take `CC(C)CC(=O)OC1C(CO)OC(OC2C(CO)OC(Oc3ccc(CC4NC(=O)C(C(C)c5ccccc5)NC(=O)CNC(=O)C(CO)NC(=O)C(C(O)C5CNC(=N)N5C5OC(CO)C(O)C(O)C5O)NC(=O)C(C(O)C5CNC(=N)N5)NC4=O)cc3)C(O)C2O)C(O)C1O` (stereo not drawn) [AC-98-5]: the MIC in experiment [6] is 16 mg/mL (≈ 11.6 mM); in experiment [7] it was 32 mg/mL (≈ 23.2 mM); with Escherichia coli (J2175), 64 mg/mL (≈ 46.4 mM); in experiment [1], 1 mg/mL (≈ 0.725 mM); in experiment [5], 4 mg/mL (≈ 2.9 mM); in experiment [2] it was 2 mg/mL (≈ 1.45 mM). The ED50 in experiment [3] amounted to 0.6 mg/kg.
As to `CC(C)CC(=O)OC1C(O)C(CO)OC(OC2C(CO)OC(Oc3ccc(CC4NC(=O)C(C(C)c5ccccc5)NC(=O)CNC(=O)C(CO)NC(=O)C(C(O)C5CNC(=N)N5C5OC(CO)C(O)C(O)C5O)NC(=O)C(C(O)C5CNC(=N)N5)NC4=O)cc3)C(O)C2O)C1O` (stereo not drawn) [AC-98-4], the MIC in experiment [6] was found to be 64 mg/mL (≈ 46.4 mM); in experiment [7], 64 mg/mL (≈ 46.4 mM); in [1], 2 mg/mL (≈ 1.45 mM); in experiment [5] it was 4 mg/mL (≈ 2.9 mM); in experiment [8] it was 4 mg/mL (≈ 2.9 mM); in experiment [2], 4 mg/mL (≈ 2.9 mM). The ED50 in [3] came to 2.6 mg/kg.
